Laboratory results: PMC6724035, “Evaluation of Tumor-Targeting Properties of an Antagonistic Bombesin Analogue RM26 Conjugated with a Non-Residualizing Radioiodine Label Comparison with a Radiometal-Labelled Counterpart” (Pharmaceutics, 2019)
Marks after values point to notes of the source that are not given here. Where no end group is shown, it is not given here.

Tests used:
[1] = target: GRPR (Homo sapiens, UniProt P30550); assay: biochemical
Procedure: All experiments were performed in triplicate and 1 × 10^6 cells/dish were seeded one day before the experiment.

[2] = Procedure: Lipophilicity was determined as the logarithm of partition coefficient, logP, of the radiolabelled compound between n-octanol and water. To determine the lipophilicity of both radioconjugates, 500 µL of n-octanol was added to a tube containing the same volume of Milli-Q water. 1 pmol (10 kBq) of radioconjugate was added. The mixture was vigorously vortexed for 1–2 min and then centrifuged. Aliquots of 100 μL were taken from each phase and their radioactivity was measured by an automated gamma-counter. The partition coefficient was calculated as the average log of a ratio of the radioactivity in organic and aqueous fractions. Each measurement was repeated in triplicate.
[3] = system: GRPR-expressing PC-3 tumour xenograft; details: 0.5 h after injection; co-injection of non-labelled NOTA-PEG4-RM26
Procedure: (§1) Animal studies were planned and performed in agreement with EU Directive 2010/63/EU for animal experiments and Swedish national legislation concerning protection of laboratory animals. Experiments were approved by the Ethics Committee for Animal Research in Uppsala (C4/16, 26 February 2016). Biodistribution studies were performed in female BALB/C nu/nu mice purchased from Scanbur A/S (Karlslunde, Denmark). GRPR-expressing xenografts were established by subcutaneous injection of 5 × 10^6 PC-3 cells/mouse in the right hind leg of mice 3 weeks before the experiment. The animals were randomized into groups of four mice for each data point.
Mice were euthanized followed by dislocation of their neck at 0.5 h after injection and blood samples were collected by heart puncture. At 3 and 24 h after injection, mice were euthanized by an intraperitoneal injection of anaesthetic solution (20 µL of solution per gram of body weight: Ketalar, 10 mg/mL; Rompun, 1 mg/mL) followed by heart puncture. […] The organ radioactivity was measured in a gamma-counter and uptake values of organs were calculated as percentage of injected dose per gram tissue (% ID/g). To test the in vivo binding specificity, a group of mice was co-injected with 7.5 nmol of non-labelled peptide (NOTA-PEG4-RM26), and biodistribution was measured at 0.5 h after injection.

[4] = system: GRPR-expressing PC-3 tumour xenograft; assay: in vivo; details: 0.5 h after injection; 40 pmol i.v.; non-blocked
Procedure: as §1
(§2) Mice were euthanized followed by dislocation of their neck at 0.5 h after injection and blood samples were collected by heart puncture. At 3 and 24 h after injection, mice were euthanized by an intraperitoneal injection of anaesthetic solution (20 µL of solution per gram of body weight: Ketalar, 10 mg/mL; Rompun, 1 mg/mL) followed by heart puncture. Salivary glands, thyroid, lung, liver, spleen, pancreas, stomach, small intestine, kidneys, tumour, muscle, and bone were collected and weighed. The organ radioactivity was measured in a gamma-counter and uptake values of organs were calculated as percentage of injected dose per gram tissue (% ID/g). To test the in vivo binding specificity, a group of mice was co-injected with 7.5 nmol of non-labelled peptide (NOTA-PEG4-RM26), and biodistribution was measured at 0.5 h after injection.

[5] = in vivo; details: mouse, iv, 40 pmol, Uptake, 40 pmol i.v.; for tissue uptake at 0.5 h: 0.5 h after injection; for tissue uptake at 3 h: 3 h after injection; for tissue uptake at 24 h: 24 h after injection
Procedure: as §1, §2

[6] = system: GRPR; parameters: method as in PMID 16818949, PMID 7876231; details: within 20–40 min; cited from earlier work
[7] = small intestine, small intestine

Sequence of GRPR (Homo sapiens, UniProt P30550) (P30550 whole entry): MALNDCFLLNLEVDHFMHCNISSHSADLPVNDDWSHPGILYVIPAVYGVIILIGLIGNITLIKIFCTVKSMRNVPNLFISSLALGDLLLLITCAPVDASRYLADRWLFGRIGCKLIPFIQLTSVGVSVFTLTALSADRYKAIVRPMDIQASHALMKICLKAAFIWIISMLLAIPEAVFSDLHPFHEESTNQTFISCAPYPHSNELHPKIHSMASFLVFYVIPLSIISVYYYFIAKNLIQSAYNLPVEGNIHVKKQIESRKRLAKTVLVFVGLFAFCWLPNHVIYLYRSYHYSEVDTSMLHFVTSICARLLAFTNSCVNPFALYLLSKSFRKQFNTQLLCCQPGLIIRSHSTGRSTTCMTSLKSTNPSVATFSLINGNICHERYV

## CC(C)C[C@H](NC(=O)C[C@H](O)[C@H](CC(C)C)NC(=O)[C@H](Cc1c[nH]cn1)NC(=O)CNC(=O)[C@@H](NC(=O)[C@H](C)NC(=O)[C@H](Cc1c[nH]c2ccccc12)NC(=O)[C@H](CCC(N)=O)NC(=O)[C@@H](Cc1ccccc1)NC(=O)COCCOCCNC(=O)[C@@H](N)Cc1ccc(O)cc1)C(C)C)C(N)=O [Tyr-PEG2-RM26, Tyrosine-PEG2-[D-Phe^6, Sta^13, Leu^14] bombesin[6–14]]
[1]
  IC50: 1.7 ± 0.3 nM

## CC(C)C[C@H](NC(=O)C[C@H](O)[C@H](CC(C)C)NC(=O)[C@H](Cc1c[nH]cn1)NC(=O)CNC(=O)[C@@H](NC(=O)[C@H](C)NC(=O)[C@H](Cc1c[nH]c2ccccc12)NC(=O)[C@H](CCC(N)=O)NC(=O)[C@@H](Cc1ccccc1)NC(=O)COCCOCCNC(=O)CN1CCN(CC(=O)O)CCN(CC(=O)O)CCN(CC(=O)O)CC1)C(C)C)C(N)=O [[^111In]In-DOTA-PEG2-RM26, metal not drawn, reference compound]
[2]
  logP: -2.6 ± 0.4
[3]
  Uptake in pancreas, blocked vs non-blocked group: significant (p < 0.05) reduction
[4]
  Uptake, tumour: 13.2 ± 4.8 ^a,h % ID/g
[5]; blood, blood
  tissue uptake at 0.5 h: 2.1 ± 0.8 %ID/g
  tissue uptake at 3 h: 0.03 %ID/g
  tissue uptake at 24 h: 0.006 ± 0.002 %ID/g
[5]; bone, bone
  tissue uptake at 0.5 h: 0.6 ± 0.3 %ID/g
  tissue uptake at 3 h: 0.05 ± 0.02 %ID/g
[5]; kidney, kidney
  tissue uptake at 0.5 h: 9.1 ± 2.9 %ID/g
  tissue uptake at 3 h: 2.4 ± 0.3 %ID/g
[5]; liver, liver
  tissue uptake at 0.5 h: 0.8 ± 0.2 %ID/g
  tissue uptake at 3 h: 0.2 %ID/g
  tissue uptake at 24 h: 0.1 %ID/g
[5]; lung, lung
  tissue uptake at 0.5 h: 1.8 ± 0.4 %ID/g
  tissue uptake at 3 h: 0.1 %ID/g
[5]; muscle, muscle
  tissue uptake at 0.5 h: 0.4 ± 0.1 %ID/g
  tissue uptake at 3 h: 0.02 %ID/g
[5]; pancreas, pancreas
  tissue uptake at 0.5 h: 6.5 ± 1.4 %ID/g
  tissue uptake at 3 h: 0.2 %ID/g
[5]; salivary gland, salivary gland
  tissue uptake at 0.5 h: 0.8 ± 0.2 %ID/g
  tissue uptake at 3 h: 0.07 ± 0.02 %ID/g
[5]; [7]
  tissue uptake at 0.5 h: 1.5 ± 0.5 %ID/g
  tissue uptake at 3 h: 0.2 ± 0.1 %ID/g
[5]; spleen, spleen
  tissue uptake at 0.5 h: 0.6 ± 0.2 %ID/g
  tissue uptake at 3 h: 0.1 %ID/g
[5]; stomach, stomach
  tissue uptake at 0.5 h: 2.9 ± 1.1 %ID/g
[5]; thyroid, thyroid
  tissue uptake at 0.5 h: 1.1 ± 0.5 %ID/g
  tissue uptake at 3 h: 0.1 %ID/g
[5]; tumour, tumour, non-blocked
  tissue uptake at 0.5 h: 13 ± 5 %ID/g
[5]; tumour, tumour
  tissue uptake at 3 h: 9.6 ± 0.6 %ID/g
  tissue uptake at 24 h: 3.6 ± 1.3 %ID/g

## [^125I]I-GRP: agonistic radioiodinated gastrin-releasing peptide (VPLPAGGGTVLTKMYPRGNHWAVGHLM; ends and bridges not checked; also: 125I radioiodination, position not given here; UniProt P07492 24-50, looked up)
[6]
  Internalization: 75–80%
